Source: patent US9163044B2, “Carbon monoxide releasing molecules and uses thereof” (Alfama, Inc., priority 2011, dated 2015)

Columns and labels:
[1] = CO release kinetics in 50 mM HEPES buffer (pH 7.4), GC-RCP; assay type: physicochemical; details: for CO equivalents released in 24 hours in the dark / CO equivalents released in 24 hours under light: 50 mM HEPES buffer
Experimental: The quantization of the released CO was performed according to Vreman et al. Anal. Biochem. (2005) 341: 280-289 using a Gas Chromatograph with a Reducing Compound Photometer detector (GC-RCP; Peak Laboratories, Mountain View, Calif.), which allows quantifying CO in gas mixtures at concentrations as low as 1-2 parts per billion (ppb).
General Method for the Determination of CO Release in HEPES Buffer
The CO release kinetics of all compounds was evaluated in 50 mM HEPES buffer (pH 7.4) in a sealed 8-mL vial. […] Since light activation can release CO from molybdenum carbonyl compounds, CO release was determined with solutions in closed, clear glass vials kept under light (on the laboratory bench under regular laboratory lighting) or in the dark (wrapped in aluminum foil and kept inside a cardboard box). Gas samples (from 10 μL up to 500 μL) of the vial headspace (7 ml volume) were removed with a gas-tight syringe at 15, 30, 60, 120, 240, 360 min, and 24 hours after start of the incubation. The gas samples were injected into sealed vials containing air (8 mL) for dilution. The entire gas volume of the vials (8 mL) was transferred with carrier gas to the GC-RCP and analyzed for CO. The GC-RCP had been calibrated with gas containing a known amount of CO. The calibration curve had been established starting with gas from a cylinder which contained synthetic air with 30 ppm CO (Linde, Cat. No. 14960013) and preparing dilutions in 8-mL vials as described above.
The CO equivalents released at each time point from each compound were determined by the following equation: (CO released (pmol)×number of CO ligands in the molecule)/([CO] in the compound (pmol)).

[2] = in vitro metabolism study: decay on incubation with liver microsomes; assay type: in vitro ADME; details: one hour / 60 minutes incubation
Experimental: Sixty percent decay could release up to 1.8 molar equivalents of CO. […] Therefore liver microsomes accelerate the decomposition of the compound. […] Microsomes were incubated with Compound 1b using closed vials to enable quantitative measurement of the released CO. As a control, Compound 1b was incubated under similar conditions in the absence of microsomes.
In an in vitro metabolism study of the CO release kinetics of Compound 3b, it was determined that 80% of Compound 3b decayed in 60 minutes incubation with liver microsomes. In order to investigate if this accelerated decomposition of Compound 3b in the presence of microsomes was inducing a faster CO release from the compound, the CO release profile of Compound 3b in the presence of liver microsomes was determined. Microsomes were incubated with Compound 3b using closed vials to enable quantitative measurement of the released CO. As a control, Compound 3b was incubated under similar conditions in the absence of microsomes. […] The initial rate of CO release is 0.0297 CO equivalents (297.22 pmol) per minute in the presence of microsomes and 0.0072 CO equivalents (72.265 pmol) per minute in the absence of microsomes.

[3] = CO release kinetics in the presence of rat liver microsomes, K-phosphate buffer (pH 7.4); assay type: in vitro ADME; details: for effect of liver microsomes on CO release / decay (in words): compared with incubation without microsomes; for CO eq. released in 1 h, Microsomes K-phosphate buffer (pH 7.4): with microsomes, 10 μM, 37° C., dark
Experimental: General Method for the CO Release in the Presence of Liver Microsomes
The CO release kinetics of Compounds 1b, 2b, 3b, 4b, and 5b were also evaluated in the presence of rat or human liver microsomes. In a 8-mL vial, the following reagents were combined:
200 μL of 0.5 M potassium phosphate buffer, pH 7.4
50 μL of NADPH regenerating system solution A (BD, Cat. No. 451220)
10 μL of NADPH regenerating system solution B (BD, Cat. No. 451200)
2 μL of 5 mM solution of the compound in DMSO (10 μM final concentration)
(§1) The vials were closed and after mixing, the samples were warmed to 37° C. for 5 minutes before an aliquot (25 μL, 0.5 mg protein content) of rat liver microsomes (BD, Cat. No. 452511) or human liver microsomes (BD, Cat. No. 452161) was added to each vial. In parallel analogous vials with all the reagents except the microsomes were prepared. Due to the light-sensitivity of the molybdenum compounds, the reactions were performed in the dark. The samples were incubated at 37° C. and gas samples of the headspace (from 100 μL to 500 μL) of the vials were removed with a gas-tight syringe after 5, 10, 15, 30, and 60 minutes (in some cases samples were also taken at 1, 2, 3 or 4 minutes) upon microsomes addition. The gas samples were then injected into empty sealed vials (8 mL volume) and the amount of CO present in the vials was measured using GC-RCP.
The CO equivalents released at each time point from each compound were determined by the following equation: (CO released (pmol)×number of CO ligands in the molecule)/([CO] in the compound (pmol)). A 1 mL solution of a tri-carbonyl compound, at 50 μM concentration contains a total of 150,000 pmol of CO.

[4] = test system: liver ischemia-reperfusion model; assay: liver ischemia-reperfusion model; assay type: in vivo, C57BL/6 mice; details: 30 mg/kg i.p. 1 h before and 1 h after surgery; ALT 24 h later
Experimental: Liver ischemia-reperfusion model in C57BL/6 mice. In anesthetized C57BL/6 mice, the hepatic artery and portal vein were clamped for 30 min; 24 h later, serum ALT levels were determined. Compound 3b was dosed i.p. at 30 mg/kg each 1 h before and 1 h after surgery.
FIG. 20 depicts the effect of Compound 3b in the Ischemia-Reperfusion model. In anesthetized C57BL/6 mice, the hepatic artery and portal vein were clamped for 30 min; 24 h later, serum ALT levels were determined. Compound 3b was administered by i.p. injection at 30 mg/kg, 1 hour before and 1 h after surgery.

[5] = CO released from Compound 3b in phosphate buffer pH 7.4 alone or with human or rat microsomes (FIG. 8); assay type: in vitro ADME; details: 37° C.
Experimental: as §1
FIG. 8 depicts the amount of CO released from Compound 3b, expressed in equivalents of CO, in phosphate buffer pH 7.4 (“buffer”), phosphate buffer pH 7.4 in the presence of human microsomes (“human”) or rat microsomes (“rat”). The assay was performed in closed vials during 1 hour at 37° C. A gas aliquot was removed from the air space of the vials and CO concentration was determined by GC-RCP at different time points.

[6] = preliminary safety studies in mice; assay type: in vivo; details: doses up to 1 g/kg
[7] = test system: lethal APAP liver failure model; assay: lethal APAP liver failure model (500 mg/kg APAP i.p.), survival; details: 2×120 mg/kg, 1 h and 3 h or 3 h and 5 h after APAP (500 mg/kg); 4 days
Experimental: Compound 3b was tested in a lethal APAP liver failure model (see, e.g. Imaeda et al. J Clin Invest (2009) 119:305-14).
Male C57BL/6 mice fasted overnight to increase CyP450 activity. APAP dosed i.p. at 500 mg/kg. Survival monitored over 3 to 5 days.
FIGS. 18A-18B depicts the survival curve of C57BL/6 mice injected (i.p.) with 500 mg/kg of APAP and treated with Compound 3b. Mice were fasted overnight and APAP was administered afterward (n=15). Compound 3b was administered at a dose of 120 mg/kg at 1 h and 3 h (A) or at 3 h and 5 h (B) after APAP administration. Mice survival was monitored for 4 days.
Mice were fasted overnight and APAP was administered afterward (n=15). Compound 3b was administered at a dose of 120 mg/kg (ip) at +3 h or +4 h after APAP administration. Another group of mice received NAC (150 mg/kg, ip) at +1 h after APAP. The remaining two groups are administered in NAC+ Compound 3b combination mode; one group of mice was administered with NAC (150 mg/kg, ip) at +1 h plus Compound 3b (120 mg/kg, ip)+3 h and other with Compound 3b (150 mg/kg, ip) at +1 h plus Compound 3b (120 mg/kg, ip)+4 h. Mice survival was monitored for 4 days.

Question: With “tricarbonyl[tris(isocyanoacetic acid)]Mo(0) [Compound 1b]” as the compound, how does the “CO equivalents released in 24 hours in the dark” value [1] read?
Answer: 1.4 CO equivalents

Question: What about the “CO equivalents released in 24 hours under light” value ([1]; under light) of the same compound?
Answer: 1.6 CO equivalents

Question: And the “compound decayed on incubation with liver microsomes” value [2]?
Answer: 60%

Question: And the “effect of liver microsomes on CO release / decay (in words)” value [3]?
Answer: increased rate of CO release

Question: What about the “CO eq. released in 1 h, Microsomes K-phosphate buffer (pH 7.4)” value [3] of the same compound?
Answer: (1.1CO eq. in 1 h)

Question: What does the source list for `[C-]#[N+]C(C)(C)C(=O)O.[C-]#[N+]C(C)(C)C(=O)O.[C-]#[N+]C(C)(C)C(=O)O.[C-]#[O+].[C-]#[O+].[C-]#[O+].[Mo]` [Compound 3b, tricarbonyl[tris(2-isocyano-2-methyl-propionic acid)]Mo(0)]?
Answer: CO equivalents released in 24 hours in the dark [1]: 1.3 CO equivalents; CO equivalents released in 24 hours under light ([1]; under light): 1.8 CO equivalents; compound decayed on incubation with liver microsomes [2]: 80%; serum ALT [4]: 29 U/L; effect of liver microsomes on CO release / decay (in words) [3]: increased rate of CO release; initial CO release rate, presence versus absence of microsomes ([3]; ratio with/without microsomes): approximately 4 times faster; CO eq. released in 1 h, Microsomes K-phosphate buffer (pH 7.4) [3]: (1.5CO eq. in 1 h); factor by which microsomes accelerate CO release ([5]; human or rat microsomes versus buffer, 1 hour): 4.0-5.5; CO released in pH 7.4 buffer in 1 hour ([5]; phosphate buffer pH 7.4, no microsomes): 0.25 mol equiv. of CO; toxicity in preliminary safety studies [6]: no toxicity; survival [7]: 100%

Question: What does the source list for `CC([N+]#[C][Mo-6]([C]#[O+])([C]#[O+])([C]#[O+])([C]#[N+]C(C)C(=O)O)[C]#[N+]C(C)C(=O)O)C(=O)O` (stereo not drawn) [Compound 2b, tricarbonyl[tris(2-isocyanopropionic acid)]Mo(0)]?
Answer: CO equivalents released in 24 hours in the dark [1]: 1.2 CO equivalents; CO equivalents released in 24 hours under light ([1]; under light): 1.5 CO equivalents; time to release 0.5 CO equivalents under light ([1]; 50 mM HEPES pH 7.4, 50 μM, under light): about 90 minutes; effect of liver microsomes on CO release / decay (in words) [3]: accelerated the decay; CO eq. released in 1 h, Microsomes K-phosphate buffer (pH 7.4) [3]: (0.9CO eq. in 1 h)
